Experimental data: US12612411B1, “Imidazopyrazine derivatives, process for preparation thereof, and their uses as luciferins” (INSTITUT PASTEUR, priority 2017, dated 2026)

Biological target: T1, nanoKAZ luciferase (Oplophorus gracilirostris, UniProt Q9GV45, A31E/A60N/A81I/F95D/I117V/K70R/L54V/L99Q/M102K/N193R/P142E/Q151K/Q38R/Q45L/V71I/Y165I)
T1 construct: luciferase catalytic domain (nanoKAZ, 19 kDa) from the Oplophorus-derived luciferase; host or cells: cell-free: 1-Step Human Coupled IVT Kit, pT7CFE1-based vector
Assay: In vitro bioluminescence screening of imidazo[1,2-a]pyrazin-3(7H)-ones with nanoKAZ expressed in vitro (96-well luminometer, 2 h kinetic)
Type: biochemical
Details: furimazine = 1
Procedure: General protocol for the generation of solutions of imidazo[1,2-a]pyrazin-3(7H)-one Q by acidic hydrolysis of imidazo[1,2-a]pyrazin-3-yl acetate derivatives P. The considered acetate P (1 mg) was dissolved in DMSO (0.2 mL) and then diluted by adding a solution of acidic ethanol (0.3 ml) made from the addition of 37% hydrochloric acid (100 μl) on 100% ethanol (12 mL). This 0.5 mL solution was incubated at 50° C. for 2 hours to give a stock solution which was then stored at −80° C. […] Nota: these conditions are only adapted to the hydrolysis of the protecting group (as defined above) of the oxygen on position 2 of the imidazo[1,2-a]pyrazine ring system and not to the hydrolysis of any additional acetyl groups eventually present elsewhere on the substrate of this reaction.
The representative bioluminescence curves shown in the FIG. 2 provided an assessment for furimazine (Q-1), 8-benzyl-2-(furan-2-ylmethyl)-6-(4-hydroxyphenyl)imidazo[1,2-a]pyrazin-3 (7/1)-one (Q-80), 8-(2-fluorobenzyl)-2-(furan-2-ylmethyl)-6-phenylimidazo[1,2-a]pyrazin-3(7H)-one (Q-84), and 8-(2-fluorobenzyl)-2-((5-methylfuran-2-yl)methyl)-6-phenylimidazo[1,2-a]pyrazin-3(7H)-one (Q-85) was obtained using a luciferase expressed in vitro as described in the following. The nanoKAZ DNA template was cloned into Thermo Scientific pT7CFE1-based vector and nanoKAZ was expressed using ThermoFisher Scientific 1-Step Human Coupled IVT Kit—DNA (ref. 88881) according to the manufacturer instructions. The resulting reaction mix was diluted 400 times in buffer (DPBS (Gibco)+0.1% (v/v) Tween 20) and conserved at −80° C. The screening of the imidazo[1,2-a]pyrazin-3(7H)-ones was performed in 96 well plates using 50 μL/well of a 1/20 dilution in DPBS (Gibco)+0.1% (v/v) Tween 20 of the nanoKAZ solution.
To illustrate the bioluminescence properties improvement achieved for many of the imidazo[1,2-a]pyrazin-3(7H)-ones described here, four values are provided in Table 1: maximum intensity (V1), signal half-life (V2), area under the curve for ten minutes (V3), and area under the curve for two hours (V4), normalized using furimazine (Q-1) as a reference.
The bioluminescence properties of the tested compounds are considered to be improved when at least one of the values V1-V4 is above 1, and when none of the V1-V4 values is 0.05 or below.
By following the hydrolysis protocol described above, the following imidazo[1,2-a]pyrazin-3(7H)-ones luciferins Q were made in situ from the corresponding O-protected imidazo[1,2-a]pyrazines P and evaluated for their bioluminescence properties (maximum intensity (V1), signal half-life (V2), area under the curve for […], normalized using furimazine (Q-1) as a reference): […]

[1] = second table, luciferins made in situ from O-protected P

T1 sequence (Q9GV45 other isoform, or with tags, fused parts or gaps with the stated changes): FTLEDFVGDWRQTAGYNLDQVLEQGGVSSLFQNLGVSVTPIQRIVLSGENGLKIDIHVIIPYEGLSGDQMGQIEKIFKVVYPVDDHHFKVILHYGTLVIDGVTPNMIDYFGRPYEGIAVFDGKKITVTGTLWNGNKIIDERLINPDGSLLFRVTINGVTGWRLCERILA

| SMILES | V1: maximum intensity, normalized using furimazine (Q-1) as a reference (Table 1) | V3: area under the curve for ten minutes, normalized using furimazine (Q-1) as a reference (Table 1) | V4: area under the curve for two hours, normalized using furimazine (Q-1) as a reference (Table 1) | V3: area under the curve for 2 hours, normalized using furimazine (Q-1) as a reference (second table) | V4: area under the curve for ten minutes, normalized using furimazine (Q-1) as a reference (second table) | V1: maximum intensity, normalized using furimazine (Q-1) as a reference [1] |
| --- | --- | --- | --- | --- | --- | --- |
| O=c1c(Cc2ccccc2)nc2c(Cc3ccccc3F)[nH]c(-c3ccccc3)cn1-2 [Q-72, 2-benzyl-8-(2-fluorobenzyl)-6-phenylimidazo[1,2-a]pyrazin-3(7H)-one] | 1.49 | 1.49 | 0.85 | – | – | – |
| Cc1cc(Cc2nc3c(Cc4ccccc4F)[nH]c(-c4ccccc4)cn-3c2=O)oc1C [Q-131, 2-((4,5-dimethylfuran-2-yl)methyl)-8-(2-fluorobenzyl)-6-phenylimidazo[1,2-a]pyrazin-3(7H)-one] | – | – | – | 1.9 | 1.02 | 2.01 |
| Cc1ccc(Cc2nc3c(Cc4ccccc4F)[nH]c(-c4ccccc4)cn-3c2=O)o1 [Q-85, 8-(2-fluorobenzyl)-2-((5-methylfuran-2-yl)methyl)-6-phenylimidazo[1,2-a]pyrazin-3(7H)-one] | 2.3 | 2.4 | 1.81 | – | – | – |
| O=c1c(Cc2ccccc2)nc2c(Cc3ccccc3)[nH]c(-c3c(F)cccc3F)cn1-2 [Q-29, 2,8-dibenzyl-6-(2,6-difluorophenyl)imidazo[1,2-a]pyrazin-3(7H)-one] | 1.86 | 1.48 | 0.55 | – | – | – |
| O=c1c(Cc2ccc(C3CC3)o2)nc2c(Cc3ccccc3)[nH]c(-c3ccccc3)cn1-2 [Q-36, 8-benzyl-2-((5-cyclopropylfuran-2-yl)methyl)-6-phenylimidazo[1,2-a]pyrazin-3(7H)-one] | 1.74 | 1.64 | 0.83 | – | – | – |
| Cc1cc(Cc2nc3c(Cc4cccc(F)c4)[nH]c(-c4ccccc4)cn-3c2=O)oc1C [Q-132, 2-((4,5-dimethylfuran-2-yl)methyl)-8-(3-fluorobenzyl)-6-phenylimidazo[1,2-a]pyrazin-3(7H)-one] | – | – | – | 1.44 | 1 | 1.5 |
| O=c1c(Cc2ccco2)nc2c(Cc3ccccc3F)[nH]c(-c3ccccc3)cn1-2 [Q-84, 8-(2-fluorobenzyl)-2-(furan-2-ylmethyl)-6-phenylimidazo[1,2-a]pyrazin-3(7H)-one] | 0.84 | 0.91 | 1.18 | – | – | – |
| CCc1ccc(Cc2nc3c(Cc4cccc(F)c4F)[nH]c(-c4ccccc4)cn-3c2=O)o1 [Q-127, 8-(2,3-difluorobenzyl)-2-((5-ethylfuran-2-yl)methyl)-6-phenylimidazo[1,2-a]pyrazin-3(7H)-one] | – | – | – | 2.69 | 1.55 | 2.81 |
| CCc1ccc(Cc2nc3c(Cc4c(F)cccc4F)[nH]c(-c4ccccc4)cn-3c2=O)o1 [Q-129, 8-(2,6-difluorobenzyl)-2-((5-ethylfuran-2-yl)methyl)-6-phenylimidazo[1,2-a]pyrazin-3(7H)-one] | – | – | – | 1.37 | 1.32 | 1.41 |
| COc1cccc(Cc2nc3c(Cc4ccccc4)[nH]c(-c4ccccc4)cn-3c2=O)c1 [Q-18, 8-benzyl-2-(3-methoxybenzyl)-6-phenylimidazo[1,2-a]pyrazin-3(7H)-one] | 1.53 | 1.41 | 0.97 | – | – | – |
